Molecules are shown by their SMILES.

Holding throughout (type): biochemical
One assay addresses T1, PI3K gamma (Homo sapiens, UniProt P48736).
T1 construct: PI3Kγ BV-950 p110g(D144aa)-C-Term His Tag; His tag (C); made in house; host or cells: construct from the Roger Williams lab (MRC LMB) in pVL1393; baculovirus; Tn5 (Trichoplusia ni) or TiniPro insect cells
The assay is described as follows: PI3 kinase assay (Kinase-Glo luminescence), PI3K gamma. The note with it: Enzymatic Data; read-out: PI3K gamma IC50 [umol]. The procedure: (§1) In a more preferred assay, the kinase reaction is performed in a final volume of 10 μL per well of a low volume non binding CORNING, 384 well black plate (Cat. No. #3676). The final concentrations of ATP and phosphatidyl inositol (PI) in the assay are 1 μM and 10 μg/mL respectively. The reaction is started by the addition of ATP.
(§2) The components of the assay are added per well as follows:
(§3) […] is determined by a four parameter curve fitting routine that comes aloneg with “excel fit”. A 4 Parameter logistic equation is used to calculate IC50 values (IDBS XLfit) of the percentage inhibition of each compound at 8 concentrations (usually 10, 3.0, 1.0, 0.3, 0.1, 0.030, 0.010 and […]). Alternatively, IC50 values are calculated using idbsXLfit model 204, which is a 4 parameter logistic model.

The target of a further assay is T2, PI3K beta (Homo sapiens, UniProt P42338).
T2 construct: for the full-length p110-b subunit are generated and fused by overlapping PCR; His tag (C); made in house; host or cells: baculovirus; Tn5 (Trichoplusia ni) or TiniPro insect cells
T2 sequence (P42338 with tags, fused parts or gaps limits assumed): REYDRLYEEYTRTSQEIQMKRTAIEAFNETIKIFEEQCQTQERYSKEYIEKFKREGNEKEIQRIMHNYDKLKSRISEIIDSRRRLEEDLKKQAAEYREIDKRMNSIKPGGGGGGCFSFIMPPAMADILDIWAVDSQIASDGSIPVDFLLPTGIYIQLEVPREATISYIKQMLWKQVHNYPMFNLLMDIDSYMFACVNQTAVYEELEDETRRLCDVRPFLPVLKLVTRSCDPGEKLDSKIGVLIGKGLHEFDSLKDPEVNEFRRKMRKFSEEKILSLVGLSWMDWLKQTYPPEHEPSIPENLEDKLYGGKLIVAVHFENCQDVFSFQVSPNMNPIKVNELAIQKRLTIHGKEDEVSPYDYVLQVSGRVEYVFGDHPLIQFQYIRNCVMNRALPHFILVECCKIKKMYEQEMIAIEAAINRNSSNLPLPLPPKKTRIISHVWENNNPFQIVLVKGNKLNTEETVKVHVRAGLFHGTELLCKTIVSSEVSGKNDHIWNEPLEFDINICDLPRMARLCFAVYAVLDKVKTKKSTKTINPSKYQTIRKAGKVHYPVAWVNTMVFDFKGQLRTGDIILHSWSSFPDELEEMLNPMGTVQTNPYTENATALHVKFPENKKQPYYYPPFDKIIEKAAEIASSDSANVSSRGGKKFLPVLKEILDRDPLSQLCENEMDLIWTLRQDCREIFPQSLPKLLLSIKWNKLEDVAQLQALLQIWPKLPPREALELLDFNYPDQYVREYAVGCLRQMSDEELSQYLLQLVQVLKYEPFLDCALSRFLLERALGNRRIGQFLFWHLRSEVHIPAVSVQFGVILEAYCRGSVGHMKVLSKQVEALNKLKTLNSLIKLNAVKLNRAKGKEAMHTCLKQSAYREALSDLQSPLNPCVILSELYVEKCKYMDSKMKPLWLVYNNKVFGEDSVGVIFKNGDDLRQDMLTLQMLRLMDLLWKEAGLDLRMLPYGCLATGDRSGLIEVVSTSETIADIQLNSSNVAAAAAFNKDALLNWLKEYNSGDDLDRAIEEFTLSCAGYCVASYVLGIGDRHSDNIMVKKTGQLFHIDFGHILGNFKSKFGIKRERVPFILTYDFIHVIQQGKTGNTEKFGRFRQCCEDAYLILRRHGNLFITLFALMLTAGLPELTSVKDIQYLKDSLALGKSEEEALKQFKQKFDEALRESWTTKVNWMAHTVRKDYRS
The assay is described as follows: PI3 kinase assay (Kinase-Glo luminescence), PI3K beta. The note with it: Enzymatic Data; read-out: PI3K beta IC50 [umol]. The procedure: as §1, §2
(§4) 50 nL test compounds in 90% DMSO per well, in columns 1-20, 8 concentrations (1/3 and 1/3.33 serial dilution step) in single. • Low control: 50 nL of 90% DMSO in half the wells of columns 23-24 (0.45% in final). • High control: 50 nL of reference compound (e.g. compound of Example 7 in WO 2006/122806, incorporated by reference hereinin that regard) in the other half of columns 23-24 (2.5 μM in final). • Standard: 50 nL of reference compound as just mentioned diluted as the test compounds in columns 21-22 • 20 mL ‘buffer’ are prepared per assay: • 200 μL of 1M TRIS HCl pH7.5 (10 mM in final) • 60 μL of 1M MgCl2 (3 mM in final) • 500 μL of 2M NaCl (50 mM in final) • 100 μL of 10% CHAPS (0.05% in final) • 200 μL of 100 mM DTT (1 mM in final) • 18.94 mL of nanopure water • 10 mL ‘PI’ are prepared per assay: • 200 μL of 1 mg/ml L-alpha-Phosphatidylinositol (Liver Bovine, Avanti Polar Lipids Cat. No. 840042C MW=909.12) prepared in 3% OctylGlucoside (10 μg/ml in final) • 9.8 mL of ‘buffer’ • 10 mL ‘ATP’ are prepared per assay: • 6.7 μL of 3 mM stock of ATP giving a final concentration of 1 μM per well • 10 mL of ‘buffer’ • 2.5 mL of each PI3K construct are prepared per assay in ‘PI’ with the following final concentration : • 10 nM PI3K alfa B-1075 • 25 nM beta BV-949 • 10 nM delta BV-1060 • 150 nM gamma BV-950 • 5 μL of ‘PI/PI3K’ are added per well. • 5 μl ‘ATP’ are added per well to start the reaction. • The plates are then incubated at room temperature for 60 minutes (alfa, beta, delta) or 120 minutes (gamma). • The reaction is terminated by the addition of 10 μL Kinase-Glo (Promega Cat. No. #6714). • The assay plates are read after 10 minutes in Synergy 2 reader (BioTek, Vermont USA) with an integration time of 100 milliseconds and sensitivity set to 191. • Output : The High control is around 60'000 counts and the Low control is 30'000 or lower • This luminescence assay gives a useful Z′ ratio between 0.4 and 0.7
as §3
(§5) Testing with the following kinases in the test system mentioned above, with the kinases given in the following tables, the following IC 50 data can be obtained: […]

The target of a further assay is T3, PI3K alfa (Homo sapiens, UniProt P42336).
T3 construct: for the p110-a subunit (with a deletion of the first 20 amino acids); His tag (C); made in house; host or cells: baculovirus; Tn5 (Trichoplusia ni) or TiniPro insect cells
T3 sequence (P42336 with tags, fused parts or gaps limits assumed): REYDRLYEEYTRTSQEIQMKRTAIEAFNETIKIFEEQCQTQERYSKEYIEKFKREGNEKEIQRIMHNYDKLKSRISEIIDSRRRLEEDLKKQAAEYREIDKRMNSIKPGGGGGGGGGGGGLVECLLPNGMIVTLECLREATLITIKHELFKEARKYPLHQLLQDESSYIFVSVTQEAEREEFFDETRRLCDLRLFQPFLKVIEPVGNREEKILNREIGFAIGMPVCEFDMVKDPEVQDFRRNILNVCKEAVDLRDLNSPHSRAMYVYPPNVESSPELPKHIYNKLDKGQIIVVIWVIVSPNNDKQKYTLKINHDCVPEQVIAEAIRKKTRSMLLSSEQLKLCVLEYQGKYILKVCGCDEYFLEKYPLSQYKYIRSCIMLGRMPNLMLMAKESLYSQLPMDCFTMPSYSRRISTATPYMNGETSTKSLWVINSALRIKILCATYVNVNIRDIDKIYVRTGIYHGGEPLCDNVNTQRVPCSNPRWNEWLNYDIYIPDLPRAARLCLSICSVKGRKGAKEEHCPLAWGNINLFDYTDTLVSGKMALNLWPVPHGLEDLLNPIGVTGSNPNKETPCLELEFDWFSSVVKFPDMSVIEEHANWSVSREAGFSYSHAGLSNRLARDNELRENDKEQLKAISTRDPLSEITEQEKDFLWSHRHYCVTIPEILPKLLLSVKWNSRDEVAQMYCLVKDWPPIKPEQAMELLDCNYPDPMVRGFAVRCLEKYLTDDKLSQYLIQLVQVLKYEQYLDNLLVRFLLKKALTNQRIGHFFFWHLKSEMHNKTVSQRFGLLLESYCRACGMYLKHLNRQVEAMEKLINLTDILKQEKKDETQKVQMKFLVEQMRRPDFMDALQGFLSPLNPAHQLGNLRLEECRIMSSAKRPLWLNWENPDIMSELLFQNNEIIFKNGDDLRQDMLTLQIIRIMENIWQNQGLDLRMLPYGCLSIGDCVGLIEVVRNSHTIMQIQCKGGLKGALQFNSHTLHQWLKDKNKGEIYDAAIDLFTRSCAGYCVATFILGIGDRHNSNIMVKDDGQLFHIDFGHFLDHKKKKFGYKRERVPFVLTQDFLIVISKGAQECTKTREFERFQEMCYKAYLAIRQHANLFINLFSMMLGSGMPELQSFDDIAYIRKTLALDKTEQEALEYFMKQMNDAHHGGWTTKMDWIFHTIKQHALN
The assay is described as follows: PI3 kinase assay (Kinase-Glo luminescence), PI3K alfa. The note with it: Enzymatic Data; read-out: PI3K alfa IC50 [umol]. As for the experimental part:
as §1, §2, §4, §3, §5

The next assay deals with T4, PI3K delta (Homo sapiens, UniProt O00329).
T4 construct: for the full-length p110-d subunit are generated and fused by overlapping PCR; His tag (C); made in house; host or cells: baculovirus; Tn5 (Trichoplusia ni) or TiniPro insect cells
T4 sequence (O00329 with tags, fused parts or gaps limits assumed): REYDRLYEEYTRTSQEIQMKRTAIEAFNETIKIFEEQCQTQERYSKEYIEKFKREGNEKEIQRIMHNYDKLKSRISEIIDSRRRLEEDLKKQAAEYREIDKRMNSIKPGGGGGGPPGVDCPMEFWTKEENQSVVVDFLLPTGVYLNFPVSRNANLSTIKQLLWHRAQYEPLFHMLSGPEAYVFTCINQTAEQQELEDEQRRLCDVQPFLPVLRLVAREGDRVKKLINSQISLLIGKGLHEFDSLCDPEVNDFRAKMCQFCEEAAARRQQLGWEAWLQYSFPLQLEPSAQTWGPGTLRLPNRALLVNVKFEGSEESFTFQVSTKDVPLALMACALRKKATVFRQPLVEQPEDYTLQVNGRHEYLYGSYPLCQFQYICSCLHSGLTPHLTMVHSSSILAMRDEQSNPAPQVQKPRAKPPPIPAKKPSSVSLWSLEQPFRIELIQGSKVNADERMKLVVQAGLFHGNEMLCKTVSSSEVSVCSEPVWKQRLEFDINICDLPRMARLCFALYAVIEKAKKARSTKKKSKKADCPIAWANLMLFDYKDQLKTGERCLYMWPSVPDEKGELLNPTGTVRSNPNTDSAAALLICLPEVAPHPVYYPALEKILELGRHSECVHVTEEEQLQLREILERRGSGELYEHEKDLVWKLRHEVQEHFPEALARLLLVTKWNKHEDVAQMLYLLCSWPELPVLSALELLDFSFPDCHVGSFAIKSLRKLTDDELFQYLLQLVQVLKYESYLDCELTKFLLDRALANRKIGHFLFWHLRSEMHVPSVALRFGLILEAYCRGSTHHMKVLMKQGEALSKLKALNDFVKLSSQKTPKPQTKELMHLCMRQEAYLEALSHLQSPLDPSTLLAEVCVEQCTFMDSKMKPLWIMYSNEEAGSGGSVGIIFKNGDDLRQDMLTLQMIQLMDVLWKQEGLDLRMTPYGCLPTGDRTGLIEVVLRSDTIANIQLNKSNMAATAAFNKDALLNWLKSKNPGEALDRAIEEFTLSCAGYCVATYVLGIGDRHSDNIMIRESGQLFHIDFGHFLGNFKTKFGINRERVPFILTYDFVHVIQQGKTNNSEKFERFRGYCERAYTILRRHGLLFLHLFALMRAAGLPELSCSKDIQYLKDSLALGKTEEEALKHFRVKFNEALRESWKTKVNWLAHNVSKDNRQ
The assay is described as follows: PI3 kinase assay (Kinase-Glo luminescence), PI3K delta. The settings on record: Enzymatic Data; read-out: PI3K delta IC50 [umol]. As for the experimental part:
as §1, §2, §4, §3, §5

T1 sequence (P48736 144-1102 limits assumed): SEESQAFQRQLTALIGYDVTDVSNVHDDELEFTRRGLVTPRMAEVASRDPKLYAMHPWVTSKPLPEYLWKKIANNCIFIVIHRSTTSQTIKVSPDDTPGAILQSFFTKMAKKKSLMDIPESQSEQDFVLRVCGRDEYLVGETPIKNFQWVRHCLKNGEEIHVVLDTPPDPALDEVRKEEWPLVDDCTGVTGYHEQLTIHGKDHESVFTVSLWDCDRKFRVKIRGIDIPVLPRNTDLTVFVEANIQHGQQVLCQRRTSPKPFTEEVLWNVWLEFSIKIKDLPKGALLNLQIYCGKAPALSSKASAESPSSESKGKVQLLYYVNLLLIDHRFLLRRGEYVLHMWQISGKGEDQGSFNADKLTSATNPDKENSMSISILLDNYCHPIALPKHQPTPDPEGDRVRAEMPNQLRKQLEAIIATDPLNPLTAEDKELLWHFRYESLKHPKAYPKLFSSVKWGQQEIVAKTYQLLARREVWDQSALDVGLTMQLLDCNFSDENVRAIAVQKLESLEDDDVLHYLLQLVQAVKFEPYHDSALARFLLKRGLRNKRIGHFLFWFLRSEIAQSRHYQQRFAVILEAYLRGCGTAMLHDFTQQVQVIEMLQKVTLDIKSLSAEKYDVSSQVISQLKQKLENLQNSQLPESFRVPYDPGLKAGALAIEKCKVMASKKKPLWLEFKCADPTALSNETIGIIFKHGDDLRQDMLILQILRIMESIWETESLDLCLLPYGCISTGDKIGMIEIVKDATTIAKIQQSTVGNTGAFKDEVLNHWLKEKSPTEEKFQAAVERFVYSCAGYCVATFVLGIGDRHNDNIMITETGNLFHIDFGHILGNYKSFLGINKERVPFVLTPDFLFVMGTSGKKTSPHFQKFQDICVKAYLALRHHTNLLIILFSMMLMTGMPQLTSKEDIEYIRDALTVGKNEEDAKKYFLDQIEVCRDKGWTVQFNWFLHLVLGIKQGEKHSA

Consider `COc1ccc(-c2ccc3ncc(-c4ccc(N)nc4)n3n2)cc1OC` [Example 34, 5-[6-(3,4-Dimethoxy-phenyl)-imidazo [1,2-b]pyridazin-3-yl]-pyridin-2-ylamine], for which the IC50 on PI3K gamma amounted to 1.31 µM; at PI3K beta, 0.718 µM; on PI3K alfa, 0.103 µM; at PI3K delta, 0.143 µM.

In the case of `CNS(=O)(=O)c1ccc(-c2cnc3ccc(-c4cnc(N)c(C(F)(F)F)c4)nn23)cc1` [Example 35, 4-[6-(6-Amino-5-trifluoro-methyl-pyridin-3-yl)-imidazo [1,2-b]pyridazin-3-yl]-N-methyl-benzene-sulfon-amide], the IC50 at PI3K gamma is more than 9.1 µM; on PI3K beta it was 0.186 µM; on PI3K alfa, 0.122 µM; on PI3K delta it was 0.171 µM.

As for `COc1cc(-c2cnc3ccc(-c4cnc(N)c(C(F)(F)F)c4)nn23)ccc1OCCCNC(=O)OC(C)(C)C` [Example 36, (3-{4-[6-(6-Amino-5-trifluoro-methyl-pyridin-3-yl)-imidazo [1,2-b]pyridazin-3-yl]-2-methoxy-phenoxy}-propyl)-carbamic acid tert-butyl ester], the IC50 at PI3K gamma was 4.83 µM; on PI3K beta it was 2.16 µM; at PI3K alfa, 0.255 µM; on PI3K delta, 0.328 µM.

Consider `COc1cc(-c2cnc3ccc(-c4cnc(N)c(C(F)(F)F)c4)nn23)ccc1OCCCN` [Example 37, 5-{3-[4-(3-Amino-propoxy)-3-methoxy-phenyl]-imidazo[1,2-b]pyridazin-6-yl}-3-trifluoro-methyl-pyridin-2-ylamine], for which the IC50 came to 1.12 µM at PI3K gamma, 0.054 µM at PI3K beta, 0.11 µM on PI3K alfa and 0.072 µM on PI3K delta.

As for `COc1ccc(-c2ccc3ncc(-c4cnc(N)cn4)n3n2)cc1OC` [Example 38, 5-[6-(3,4-Dimethoxy-phenyl)-imidazo [1,2-b]pyridazin-3-yl]-pyrazin-2-ylamine], the IC50 was found to be 1.69 µM on PI3K gamma, 0.226 µM at PI3K beta, 0.092 µM on PI3K alfa and 0.121 µM on PI3K delta.

As for `Nc1ccc(-c2cnc3ccc(-c4cnc(N)c(C(F)(F)F)c4)nn23)cn1` [Example 39, 5-{3-(6-Amino-pyridin-3-yl)-imidazo [1,2-b]pyridazin-6-yl]-3-trifluoro-methyl-pyridin-2-ylamine], the IC50 was 1.29 µM on PI3K gamma, 0.019 µM on PI3K beta, 0.054 µM on PI3K alfa and 0.04 µM on PI3K delta.

`CC(C)(C)OC(=O)NCCCOc1ccc(-c2cnc3ccc(-c4cnc(N)c(C(F)(F)F)c4)nn23)cc1OC(F)(F)F` [Example 40, (3-{4-[6-(6-Amino-5-trifluoro-methyl-pyridin-3-yl)-imidazo [1,2-b]pyridazin-3-yl]-2-trifluoro-methoxy-phenoxy}-propyl)-carbamic acid tert-butylester]: the IC50 at PI3K gamma is more than 9.1 µM; on PI3K beta, more than 9.1 µM; at PI3K alfa, 6.9 µM; at PI3K delta it was more than 9.1 µM.

With `Nc1ncc(-c2ccc3ncc(-c4cnc5[nH]ccc5c4)n3n2)cc1C(F)(F)F` [Example 41, 5-[3-(1H- Pyrrolo [2,3-b]pyridin-5-yl)-imidazo [1,2-b]pyridazin-6-yl]-3-trifluoro-methyl-pyridin-2-ylamine], the IC50 at PI3K gamma was determined as 1.6 µM; at PI3K beta it was 0.212 µM; at PI3K alfa it was 0.264 µM; at PI3K delta, 0.207 µM.

With `COc1ccc(-c2cnc3ccc(-c4cnc5[nH]ccc5c4)nn23)cc1OC` [Example 42, 3-(3,4-Dimethoxy-phenyl)-6-(1H-pyrrolo[2,3-b]pyridin-5-yl)-imidazo [1,2-b] pyridazine], the IC50 was more than 9.1 µM on PI3K gamma, more than 9.1 µM on PI3K beta, 0.635 µM on PI3K alfa and 0.624 µM on PI3K delta.

These data come from patent US20100311729A1, “Substituted imidazopyridazines and pyrrolopyrimidines as lipid kinase inhibitors” (priority 2007, published 2010).
